Measurements reported in ChEMBL document CHEMBL5338783, “Discovery of an Anti-TNF-α 9-mer Peptide from a T7 Phage Display Library for the Treatment of Inflammatory Bowel Disease” (J Med Chem, 2023).
Calls of active or inactive are those of the source. The calls are words filed in the database; no cut-off is given here. Peptide text beside a SMILES is read from it.

Experiments:
Tumor necrosis factor [1] = biological target: T1, Tumor necrosis factor (Homo sapiens, UniProt P01375); assay: Binding affinity to recombinant TNF-alpha (unknown origin) assessed as dissociation constant incubated for 10 mins by MST assay
Tumor necrosis factor [2] = biological target: T1, Tumor necrosis factor; assay: Binding affinity to recombinant TNF-alpha (unknown origin) at 488.3 to 500 uM incubated for 10 mins by MST assay; settings: dose 488.3-500 µM

T1 sequence (P01375 whole entry): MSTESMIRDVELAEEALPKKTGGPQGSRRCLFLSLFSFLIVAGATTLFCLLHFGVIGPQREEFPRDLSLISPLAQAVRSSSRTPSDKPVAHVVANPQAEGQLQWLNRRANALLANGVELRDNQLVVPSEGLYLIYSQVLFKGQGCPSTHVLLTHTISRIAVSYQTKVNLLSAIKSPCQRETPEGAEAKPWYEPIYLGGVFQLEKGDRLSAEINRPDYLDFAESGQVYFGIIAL

`C[C@H](N)C(=O)N[C@@H](CS)C(=O)N[C@@H](Cc1c[nH]cn1)C(=O)N[C@@H](C)C(=O)N[C@@H](Cc1c[nH]c2ccccc12)C(=O)N[C@@H](C)C(=O)N1CCC[C@H]1C(=O)N[C@@H](C)C(=O)N[C@@H](CCCNC(=N)N)C(=O)O` (H-ACHAWAPAR-OH) showed a Kd (Tumor necrosis factor [1]) of 18 µM.
In the case of `CC[C@H](C)[C@H](NC(=O)CNC(=O)[C@H](CC(C)C)NC(=O)[C@H](CC(C)C)NC(=O)[C@H](CO)NC(=O)[C@H](CC(C)C)NC(=O)[C@@H](NC(=O)[C@H](CCC(N)=O)NC(=O)[C@@H](N)CC(N)=O)[C@@H](C)CC)C(=O)O` (H-NQILSLLGI-OH), the Activity (Tumor necrosis factor [2]) is reported as “inactive”.
With `C[C@H](N)C(=O)N[C@@H](CS)C(=O)N[C@@H](C)C(=O)N[C@@H](C)C(=O)N[C@@H](Cc1c[nH]c2ccccc12)C(=O)N[C@@H](C)C(=O)N1CCC[C@H]1C(=O)N[C@H](C(=O)N[C@@H](CCCNC(=N)N)C(=O)O)[C@@H](C)O` (H-ACAAWAPTR-OH) the Kd (Tumor necrosis factor [1]) was 230 µM.
In the case of `C[C@H](N)C(=O)N[C@@H](CS)C(=O)N[C@@H](Cc1c[nH]cn1)C(=O)N[C@@H](C)C(=O)N[C@@H](Cc1c[nH]c2ccccc12)C(=O)N[C@@H](C)C(=O)N[C@@H](C)C(=O)N[C@H](C(=O)N[C@@H](CCCNC(=N)N)C(=O)O)[C@@H](C)O` (H-ACHAWAATR-OH), the Kd (Tumor necrosis factor [1]) is reported as 9.06 µM.
For `CC[C@H](C)[C@H](NC(=O)[C@H](CCCCN)NC(=O)[C@H](CCCCN)NC(=O)[C@H](C)N)C(=O)N[C@H](C(=O)N[C@@H](CC(C)C)C(=O)N[C@@H](CCCNC(=N)N)C(=O)N[C@@H](CC(C)C)C(=O)N[C@@H](CO)C(=O)O)[C@@H](C)CC` (H-AKKIILRLS-OH), the Activity (Tumor necrosis factor [2]) was “inactive”.
In the case of `C[C@H](N)C(=O)N[C@@H](CS)C(=O)N[C@@H](Cc1c[nH]cn1)C(=O)N[C@@H](C)C(=O)N[C@@H](C)C(=O)N[C@@H](C)C(=O)N1CCC[C@H]1C(=O)N[C@H](C(=O)N[C@@H](CCCNC(=N)N)C(=O)O)[C@@H](C)O` (H-ACHAAAPTR-OH), the Kd (Tumor necrosis factor [1]) is reported as 563 µM.
